Tests used:
Type in all cases: in vivo
wild, free-ranging rats [1] = assay: Model selection / model averaging of blend-trial response variables (Visitation, Contact, Marking, Intensity); details: response variable Intensity (footprint squares); Phase removed as random effect
wild, free-ranging rats [2] = assay: as above; details: for relative importance of variable (model averaging), Contact: response variable Contact (chew or bite marks); for relative importance of variable (model averaging), Marking: response variable Marking (urination and/or faecal marking); for relative importance of variable (model averaging), Visitation: response variable Visitation (tracking), presence/absence of compound in lure as predictor
Excerpt: (§1) Trials were designed to compare the performance of each lure relative to the best performing lure after each successive trial phase. The elimination of poorer performing lures allowed for higher levels of internal replication and the inclusion of additional multi-component blend lures to Phase Two. Lures were scored using the presence/absence of rat tracks on inked tracking cards to provide a proportion of tracking cards receiving species-specific visitations and hereafter termed the ‘tracking rate’. The tracking rate was used to direct the elimination process. Lures that were statistically less attractive than the best performing lure after Phase One trials were eliminated from subsequent trials. Three behavioural response variables were scored that were designed to quantify the strength of the visit to the respective lure: (1) the presence of urination and/or faecal marking in or on the tracking tunnel and hereafter termed ‘Marking’; (2) the presence of chew or bite marks on the microtube and/or tracking tunnel and hereafter termed ‘Contact’ and; (3) the amount of footprints on each tracking card that received a visitation. This was measured using a 10 cm×47 cm Perspex sheet with a grid made up of 1 cm^2 squares. The number of squares with species-specific tracks was calculated to provide a score, hereafter termed ‘Intensity’. Intensity was designed to identify lures that generated intensive or multiple visits by an individual or that elicited visits from multiple individuals.
A multi-model information-theoretic approach was used at the end of Phase Two to identify the models of best fit for each of the four response variables (Tracking, Marking, Contact and Intensity) and to investigate possible synergistic effects between compounds used in multi-component blends. Data for each lure comprising one or any combination of A6, B6, C6, F7 and/or 17 were collated. Model averaging was used to identify each compounds relative importance to each response variable.
Binomial tests were used to compare the performance of each lure to the best performing lure at the end of each in-field trial phase and drive the process. Tracking, Marking and Contact models were run as generalised linear mixed-effects models (GLMM) with a binomial distribution and logit link and a linear mixed-effects model (LMM) for Intensity. The presence/absence of compounds in each lure were used as predictor variables.
A ‘Global’ model was firstly generated containing all fixed-effect parameters, with ‘Site’ and/or ‘Transect’ and/or ‘Trial Phase” included as random effects. This allowed for the examination of both spatial (Site and Transect) and temporal (Trial Phase) impacts on the data. ‘Transect’ nested within ‘Site’ and ‘Trial Phase’ provided an improved model fit compared to any other random effect model, therefore all models were run with the inclusion of ‘Transect’ nested within ‘Site’ and ‘Trial Phase” as random effects. Akaike's information criterion corrected for small sample size (AICc) was used to compare models. Corresponding Akaike differences (Δi), the number of parameters (K), Akaike weights (Wi) and log-likelihoods (LL) were also calculated. As the model set was not balanced i.e., there were not equal numbers of models for each variable a cut-off of 10AICC was used (Bolker et al. 2009) to create the model averaging candidate model-sets from the relative importance of variables were derived. Correlations between the response variables used in linear regression models were examined using Dice's similarity coefficient (QS) due to the binary nature of three of the four variables (Choi et al. 2010).
Statistical significance was assumed wherever P≤0.05. All statistical analysis was run in R (R Core Team 2016), with package Ime4 (Bates et al. 2015) used for mixed-effects models and MuMIn (Barton 2016) used for AICc scores, weights, deltas, log-likelihoods and model averaging (using the dredge function).

wild, free-ranging rats [3] = assay: Field trials of single-compound synthetic lures in tracking tunnels (tracking rate); details: for attractiveness relative to peanut butter standard and control (aggregated tracking rate): tracking rate aggregated for all seven concentrations 10,000 to 0.01 ppm in fractionated coconut oil, one night, FIG. 2
Description: Synthetic lures comprising a single compound mixed in a carrier medium (fractionated coconut oil) were presented to wild, free-ranging rats at 7 concentrations, decreasing in orders of magnitude from 10,000 ppm to 0.01 ppm. The compounds and concentrations used are set out in Table 2. Lures were presented in 1.7 mL Eppendorf microtubes secured to the inside wall of tracking tunnels using a cable tie. Inked cards were placed in each tunnel to quantify the visitation and identity of species visiting lures. Lures were randomly assigned along transects, with a minimum 25-m spacing between lures and with transects separated by 200 m. A control (fractionated coconut oil only) and standard (peanut butter) were assigned to each transect, with each transect comprising of lures presented at the same concentration. The order of transects was randomised for each trial. All lures were left in situ for one rain-free night. Lures were scored using the presence of rat tracks on inked cards to provide a proportion of inked cards receiving a visit for each lure, hereafter termed the “tracking rate”. Binomial tests were used to compare the tracking rate of each individual lure against peanut butter at the end of the trial period. Binomial tests were run in R (R Core Team 2013). Ten trials were undertaken at independent sites across the Wainuiomata and Orongorongo catchment region and within the Akatarawa and Pakuratahi Forest Parks, Wellington region (41° 15S, 175° 00E), New Zealand between 15 Jul. 2015 and 11 Nov. 2015.

wild, free-ranging rats [4] = assay: Blend trials (Phase One and Phase Two) of single and multi-component lures in tracking tunnels; details: Phase One; for performance versus top performing lure CF (binomial test): P<0.03
Excerpt: Lure preparation and presentation methods followed those outlined above.
For Phase One, A6, B6, C6, F7 and 17 identified as in Table 2 were presented. For example, A6 and B6 were blended together in equal parts to make a dyad lure coded AB. Each trial consisted of a single spatially stratified transect. Each strata contained one of each lure, a control (FCO) and the standard (peanut butter). The number of transect strata varied between trials according to site conditions i.e., track length and accessibility. Lures were spaced at 50 m, with the order of lures randomised within transect strata and between each trial. All lures were left in situ for two rain-free night. Ten trials were undertaken at independent sites across the Greater Wellington region and Richmond Range, Nelson, New Zealand between 11 Nov. 2015 and 25 Feb. 2016.
For Phase Two, the best performing single and dyad lures identified after Phase One were presented. In addition, all possible triad, tetrad and pentad blend combinations of A, B, C, F and I were created and trialled. […]
as §1, with “The elimination of poorer performing lures allowed for higher levels of internal replication and the inclusion of additional multi-component blend lures to Phase Two.” left out, “The tracking rate was used to direct the elimination process. Lures that were statistically less attractive than the best performing lure after Phase One trials were eliminated from subsequent trials.” left out, “Intensity was designed to identify lures that generated intensive or multiple visits by an individual or that elicited visits from multiple individuals.” left out

Row | Structure (SMILES) | relative importance of variable (model averaging), Intensity (wild, free-ranging rats [1]) | relative importance of variable (model averaging), Contact (wild, free-ranging rats [2]) | relative importance of variable (model averaging), Marking (wild, free-ranging rats [2]) | relative importance of variable (model averaging), Visitation (wild, free-ranging rats [2]) | attractiveness relative to peanut butter standard and control (aggregated tracking rate) (wild, free-ranging rats [3]) | performance versus top performing lure CF (binomial test) (wild, free-ranging rats [4]) | tracking rate (wild, free-ranging rats [4]; 10 sites, n=30 per lure, two nights, summer months) | trend of attraction with concentration (wild, free-ranging rats [3]; seven concentrations 10,000 to 0.01 ppm)
1 | CC(C)CCO [A, isoamyl alcohol] | 0.85 | 0.68 | 0.95 | 0.69 | more attractive than the peanut butter standard | – | – | –
2 | CCCCCCO [B, 1-hexanol] | 0.89 | 0.50 | 0.95 | 0.90 | more attractive than the peanut butter standard | statistically weaker | – | –
3 | CC(=O)C(C)O (stereo not drawn) [C, acetoin] | 0.94 | 0.50 | 0.96 | 0.58 | more attractive than the peanut butter standard | – | 0.20 | –
4 | CC(C)CC(=O)O [D, Isopentanoic acid] | – | – | – | – | less attractive than the peanut butter standard and the control | – | – | –
5 | Cc1nccnc1C [E, 2,3-dimethylpyrazine] | – | – | – | – | less attractive than the peanut butter standard and the control | – | – | –
6 | CC(=O)OCC(C)C [F, isobutyl acetate] | 0.86 | 0.78 | 0.987 | 0.70 | more attractive than the peanut butter standard | statistically weaker | – | –
7 | CC(=O)OCCC(C)C [G, Isopentyl acetate] | – | – | – | – | less attractive than the peanut butter standard and the control | – | – | no trend
8 | Cc1nc(C)c(C)nc1C [H, Tetramethylpyrazine] | – | – | – | – | less attractive than the peanut butter standard but more attractive than the control | – | – | –
9 | CCC(C)COC(C)=O (stereo not drawn) [I, 2-methylbutyl acetate] | 0.88 | 0.48 | 0.95 | 0.84 | more attractive than the peanut butter standard | – | – | –

Source: US12075776B2, “Synthetic lures” (VICTORIA LINK LIMITED, priority 2016, dated 2024)
